Test results reported in patent publication US12447153B2, “HER2 mutation inhibitors” (Array BioPharma Inc., priority 2021, dated 2025).

Columns and labels:
ErbB2 WT = ErbB2 WT (Homo sapiens (Human), UniProt P04626); experiment: ErbB Enzyme Assay (HTRF KinEASE-TK), Assay 2; format: biochemical
EGFR = EGFR (Homo sapiens (Human), UniProt P00533); experiment: ErbB Enzyme Assay (HTRF KinEASE-TK), Assay 3; format: biochemical
[1] = molecular target: ErbB2 with Exon 20 YVMA insertion (HER2-YVMA) (Homo sapiens (Human), UniProt P04626, INS775YVMA); experiment: Cellular Phosphorylation Assay, Assay 4 (constitutive ErbB2 phosphorylation, NIH 3T3 cells); format: cell-based
EGFR wild type (EGFR WT) = EGFR wild type (EGFR WT) (Homo sapiens (Human), UniProt P00533); experiment: Cellular Phosphorylation Assay, Assay 5 (EGF-stimulated EGFR phosphorylation, NIH 3T3 cells); format: cell-based
[2] = EGF-stimulated EGFR WT phosphorylation
[3] = cellular ErbB2 YVMA phosphorylation
[4] = cellular EGFR WT phosphorylation, EGF-stimulated

Sequence of ErbB2 WT (P04626 23-1255): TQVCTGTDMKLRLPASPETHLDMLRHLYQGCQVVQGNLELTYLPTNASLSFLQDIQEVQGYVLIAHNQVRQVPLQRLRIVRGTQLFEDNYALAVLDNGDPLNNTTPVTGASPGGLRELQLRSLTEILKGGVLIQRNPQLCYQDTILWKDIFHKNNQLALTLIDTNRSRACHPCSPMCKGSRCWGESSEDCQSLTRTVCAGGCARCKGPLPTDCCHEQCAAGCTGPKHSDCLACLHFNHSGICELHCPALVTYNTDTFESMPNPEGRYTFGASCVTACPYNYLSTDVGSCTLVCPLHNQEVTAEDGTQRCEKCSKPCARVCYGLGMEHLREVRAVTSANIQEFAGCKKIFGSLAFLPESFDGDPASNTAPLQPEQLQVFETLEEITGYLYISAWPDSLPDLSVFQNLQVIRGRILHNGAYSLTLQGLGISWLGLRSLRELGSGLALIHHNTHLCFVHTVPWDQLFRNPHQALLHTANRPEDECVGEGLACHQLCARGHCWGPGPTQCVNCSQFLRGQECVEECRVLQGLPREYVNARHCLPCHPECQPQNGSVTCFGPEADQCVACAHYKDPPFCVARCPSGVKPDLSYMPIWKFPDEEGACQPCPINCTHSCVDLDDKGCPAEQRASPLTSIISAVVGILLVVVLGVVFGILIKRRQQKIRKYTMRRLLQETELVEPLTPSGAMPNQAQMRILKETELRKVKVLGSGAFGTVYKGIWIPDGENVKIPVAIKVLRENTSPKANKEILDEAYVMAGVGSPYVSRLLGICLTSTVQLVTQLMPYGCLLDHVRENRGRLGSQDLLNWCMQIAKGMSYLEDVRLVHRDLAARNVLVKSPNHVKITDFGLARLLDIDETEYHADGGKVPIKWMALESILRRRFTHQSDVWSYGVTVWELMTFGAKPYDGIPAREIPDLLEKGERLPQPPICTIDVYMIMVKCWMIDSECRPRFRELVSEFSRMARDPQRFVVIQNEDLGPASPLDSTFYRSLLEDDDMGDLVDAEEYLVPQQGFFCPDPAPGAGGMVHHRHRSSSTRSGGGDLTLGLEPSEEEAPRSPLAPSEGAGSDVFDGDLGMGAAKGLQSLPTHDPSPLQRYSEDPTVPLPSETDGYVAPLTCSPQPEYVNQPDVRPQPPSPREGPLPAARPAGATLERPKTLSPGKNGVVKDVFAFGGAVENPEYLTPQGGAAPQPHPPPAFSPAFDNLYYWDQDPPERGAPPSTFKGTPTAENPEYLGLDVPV
Sequence of ErbB2 with Exon 20 YVMA insertion (HER2-YVMA) (P04626 other isoform, or with tags, fused parts or gaps ins YVMA behind 775): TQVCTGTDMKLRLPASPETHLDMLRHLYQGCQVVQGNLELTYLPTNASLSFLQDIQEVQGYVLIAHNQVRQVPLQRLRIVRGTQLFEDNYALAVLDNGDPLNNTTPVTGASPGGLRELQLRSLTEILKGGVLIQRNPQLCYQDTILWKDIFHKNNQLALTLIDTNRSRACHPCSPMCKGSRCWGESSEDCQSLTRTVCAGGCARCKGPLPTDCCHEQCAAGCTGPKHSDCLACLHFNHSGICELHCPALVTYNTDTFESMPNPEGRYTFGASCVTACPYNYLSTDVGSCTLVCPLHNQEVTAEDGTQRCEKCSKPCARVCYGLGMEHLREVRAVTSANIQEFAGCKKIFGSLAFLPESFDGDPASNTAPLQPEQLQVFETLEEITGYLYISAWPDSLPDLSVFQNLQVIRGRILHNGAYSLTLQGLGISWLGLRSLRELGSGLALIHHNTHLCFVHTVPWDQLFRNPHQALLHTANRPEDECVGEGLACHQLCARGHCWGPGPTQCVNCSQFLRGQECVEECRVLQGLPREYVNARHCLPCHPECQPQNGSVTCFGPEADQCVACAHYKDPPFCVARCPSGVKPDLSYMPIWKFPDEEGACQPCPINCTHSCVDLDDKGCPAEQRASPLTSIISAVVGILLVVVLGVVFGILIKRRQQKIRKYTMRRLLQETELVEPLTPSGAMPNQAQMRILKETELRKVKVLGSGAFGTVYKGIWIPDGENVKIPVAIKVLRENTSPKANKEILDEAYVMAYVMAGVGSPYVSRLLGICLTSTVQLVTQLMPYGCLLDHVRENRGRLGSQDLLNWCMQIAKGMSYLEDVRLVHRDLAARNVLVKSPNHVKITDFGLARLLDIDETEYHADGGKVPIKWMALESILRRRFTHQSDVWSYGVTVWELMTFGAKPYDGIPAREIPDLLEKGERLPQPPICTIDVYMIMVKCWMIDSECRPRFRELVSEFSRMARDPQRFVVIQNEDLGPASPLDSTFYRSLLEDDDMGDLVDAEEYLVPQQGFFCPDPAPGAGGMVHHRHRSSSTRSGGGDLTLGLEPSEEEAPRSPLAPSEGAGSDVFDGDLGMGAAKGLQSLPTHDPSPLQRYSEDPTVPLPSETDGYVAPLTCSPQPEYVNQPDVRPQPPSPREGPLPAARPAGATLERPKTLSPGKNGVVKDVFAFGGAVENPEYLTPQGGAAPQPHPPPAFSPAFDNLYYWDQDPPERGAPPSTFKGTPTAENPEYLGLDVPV
Sequence of EGFR wild type (EGFR WT) (P00533 25-1210): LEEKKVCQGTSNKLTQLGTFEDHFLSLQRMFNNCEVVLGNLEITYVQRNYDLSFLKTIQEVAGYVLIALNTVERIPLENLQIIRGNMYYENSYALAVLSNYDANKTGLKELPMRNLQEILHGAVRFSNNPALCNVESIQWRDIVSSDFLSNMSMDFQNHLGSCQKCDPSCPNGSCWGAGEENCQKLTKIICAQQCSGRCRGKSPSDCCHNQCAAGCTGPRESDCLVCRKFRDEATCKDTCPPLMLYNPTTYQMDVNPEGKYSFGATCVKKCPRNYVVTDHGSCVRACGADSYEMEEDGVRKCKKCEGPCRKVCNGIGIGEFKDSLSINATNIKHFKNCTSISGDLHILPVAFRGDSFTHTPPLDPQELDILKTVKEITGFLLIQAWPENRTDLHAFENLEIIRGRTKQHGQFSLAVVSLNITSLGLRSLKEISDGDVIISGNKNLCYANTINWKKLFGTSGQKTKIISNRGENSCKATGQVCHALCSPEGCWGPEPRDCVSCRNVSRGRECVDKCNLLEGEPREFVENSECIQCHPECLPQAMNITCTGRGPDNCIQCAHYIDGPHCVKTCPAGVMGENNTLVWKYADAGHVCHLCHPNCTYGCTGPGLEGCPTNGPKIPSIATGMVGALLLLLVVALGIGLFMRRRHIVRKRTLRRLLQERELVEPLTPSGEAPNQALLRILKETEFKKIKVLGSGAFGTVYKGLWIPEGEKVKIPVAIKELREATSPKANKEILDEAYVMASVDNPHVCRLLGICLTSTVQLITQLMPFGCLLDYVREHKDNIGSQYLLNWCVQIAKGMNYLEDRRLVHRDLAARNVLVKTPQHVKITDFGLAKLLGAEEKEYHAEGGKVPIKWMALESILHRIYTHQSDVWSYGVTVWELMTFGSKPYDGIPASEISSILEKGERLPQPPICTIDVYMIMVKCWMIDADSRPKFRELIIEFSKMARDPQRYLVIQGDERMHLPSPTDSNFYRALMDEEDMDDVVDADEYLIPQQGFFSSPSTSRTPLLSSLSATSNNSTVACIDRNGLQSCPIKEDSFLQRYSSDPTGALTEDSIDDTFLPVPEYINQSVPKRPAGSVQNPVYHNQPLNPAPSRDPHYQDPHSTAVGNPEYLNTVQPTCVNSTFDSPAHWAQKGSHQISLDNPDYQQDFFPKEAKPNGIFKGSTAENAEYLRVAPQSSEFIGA
Sequence of EGFR (P00533 25-1210): as above

SMILES | IC50 (ErbB2 WT; ErbB2 WT enzyme) [nM] | IC50 (EGFR; EGFR enzyme) [nM] | IC50 ([1]; ErbB2 YVMA phosphorylation) [nM] | IC50 (EGFR wild type (EGFR WT); [2]) [nM] | IC50 (ErbB2 WT; ErbB2 WT enzyme assay) [nM] | IC50 (EGFR; EGFR enzyme assay) [nM] | IC50 [1, 3] [nM] | IC50 (EGFR wild type (EGFR WT); [4]) [nM]
C=CC(=O)N1CC[C@@H]2[C@H](c3ccc4ncnc(Nc5ccc(Oc6ccc7c(c6)ncn7C)c(C)c5F)c4n3)CC[C@@H]21 (racemic) [Example 142, rac-1-((3aR,4R,6aS)-4-(4-((2-fluoro-3-methyl-4-((1-methyl-1H-benzo[d]imidazol-5-yl)oxy)phenyl)amino)pyrido[3,2-d]pyrimidin-6-yl)hexahydrocyclopenta[b]pyrrol-1(2H)-yl)prop-2-en-1-one] | 49.9 | ≥ 10000 | 79.5 | ≥ 5000 |  |  |  | 
C=CC(=O)N1CCC(Oc2nc3c(Nc4ccc(Oc5ccc6cn(C)nc6c5)c(C)c4F)ncnc3cc2OC)CC1 [Example 151, 1-(4-((4-((2-fluoro-3-methyl-4-((2-methyl-2H-indazol-6-yl)oxy)phenyl)amino)-7-methoxypyrido[3,2-d]pyrimidin-6-yl)oxy)piperidin-1-yl)prop-2-en-1-one] | 41.6 | 126 | 28.1 | 548 |  |  |  | 
C=CC(=O)N1CC[C@H](c2ccc3ncnc(Nc4ccc(Oc5cnc6c(c5)ncn6C)c(Cl)c4)c3n2)CC1(C)C (racemic) [Example 272] |  |  |  |  | 124 | ≥ 10000 | 76.9 | ≥ 5000
C=CC(=O)N1CCC(Oc2ccc3ncnc(Nc4cc(C)c(Oc5ccc6cn(C)nc6c5)cc4F)c3n2)CC1 [Example 5, 1-(4-((4-((2-fluoro-5-methyl-4-((2-methyl-2H-indazol-6-yl)oxy)phenyl)amino)pyrido[3,2-d]pyrimidin-6-yl)oxy)piperidin-1-yl)prop-2-en-1-one] | 2340 | ≥ 10000 | 407 | ≥ 5000 |  |  |  | 
C=CC(=O)N1CCC(Oc2ccc3ncnc(Nc4ccc(Oc5cnn6ccnc6c5)c(Cl)c4)c3n2)CC1 [Example 54, 1-(4-((4-((3-chloro-4-(imidazo[1,2-b]pyridazin-7-yloxy)phenyl)amino)pyrido[3,2-d]pyrimidin-6-yl)oxy)piperidin-1-yl)prop-2-en-1-one] | 423 | 1380 | 40 | 1470 |  |  |  | 
C=CC(=O)N1CCC(c2nc3c(Nc4ccc(Oc5ccn6ncnc6c5)c(C)c4F)ncnc3cc2OC)CC1 [Example 155, 1-(4-(4-((4-([1,2,4]triazolo[1,5-a]pyridin-7-yloxy)-2-fluoro-3-methylphenyl)amino)-7-methoxypyrido[3,2-d]pyrimidin-6-yl)piperidin-1-yl)prop-2-en-1-one] | 9720 | ≥ 10000 | 3950 | ≥ 5000 |  |  |  | 

Second part, the molecule after the results:

IC50 (ErbB2 WT; ErbB2 WT enzyme) [nM] | IC50 (EGFR; EGFR enzyme) [nM] | IC50 ([1]; ErbB2 YVMA phosphorylation) [nM] | IC50 (EGFR wild type (EGFR WT); [2]) [nM] | IC50 (ErbB2 WT; ErbB2 WT enzyme assay) [nM] | IC50 (EGFR; EGFR enzyme assay) [nM] | IC50 [1, 3] [nM] | IC50 (EGFR wild type (EGFR WT); [4]) [nM] | SMILES
24.2 | 342 | 17 | 809 |  |  |  |  | C=CC(=O)N1CCCC(c2ccc3ncnc(Nc4ccc(Oc5ccn6ncnc6c5)c(C)c4F)c3n2)C1 (stereo not shown) [Example 198, 1-(3-(4-((4-([1,2,4]triazolo[1,5-a]pyridin-7-yloxy)-2-fluoro-3-methylphenyl)amino)pyrido[3,2-d]pyrimidin-6-yl)piperidin-1-yl)prop-2-en-1-one]
 |  |  |  | 80.3 | ≥ 10000 | 16.2 | 562 | C=CC(=O)N1CCN(c2ccc3ncnc(Nc4ccc(Oc5ccn6ncnc6c5)c(Cl)c4F)c3n2)C[C@H]1C(C)(C)C [Example 311]
0.6 | 16.1 | 4.4 | 69 |  |  |  |  | C=CC(=O)N1CCN(c2nc3c(Nc4ccc(Oc5ccn6ncnc6c5)c(Cl)c4F)ncnc3cc2OC)CC1 [Example 148, 1-(4-(4-((4-([1,2,4]triazolo[1,5-a]pyridin-7-yloxy)-3-chloro-2-fluorophenyl)amino)-7-methoxypyrido[3,2-d]pyrimidin-6-yl)piperazin-1-yl)prop-2-en-1-one]
 |  |  |  | 91.9 | 7510 | 56.2 | ≥ 5000 | C=CC(=O)N1CCN(c2ccc3ncnc(Nc4cnc(Oc5ccn6ncnc6c5)c(C)c4)c3n2)CC1(C)C [Example 449]
